Measurements from US11724998B2, “PXR agonists and uses thereof for gut barrier dysfunction treatment and prevention” (Albert Einstein College of Medicine, priority 2017, dated 2023).
Entries after “also recorded” stand apart in the source; their conditions may differ.

Tests used:
Type in all cases: cell-based
[1] = test system: CAR, constitutive androstane receptor; experiment: Nuclear receptor transactivation assay in Caco-2 cells (CAR); conditions: FIG. 4
Protocol: (§1) FIG. 4. Nuclear Receptor transactivation assays in caco-2 (day 0) cells. Methods used are published (33). Assays were performed at least two times in triplicate CAR, constitutive androstane receptor; TCBOPOP, CAR ligand; LXR, Liver X receptor; T0901315, LXR ligand. n.s, not significant.
(§2) IPA/Indoles can have weak (˜2 fold) but important effects on the activation of other nuclear receptors (e.g., CAR, LXR) (33). […] Some receptors, specifically CAR and LXR, can act to induce liver steatosis (79, 83-86) and hepatocarcinogenesis (CAR) (80, 84, 87-89) and thus, avoiding excessive activation of these nuclear receptors in the context of PXR activation would be important. […] CDK5 (along with CDK2) are important kinases that phosphorylate and inhibit PXR activation (90). Accordingly, based on the data, it is unlikely that FKK5 activates PXR via inhibition of CDK5.

IL-8 = experiment: TNF-induced IL-8 in human intestinal organoids; conditions: initial experiment n=2, FIG. 12
From the text: Intestinal organoids were developed using human small intestines and stem cell isolation and propagation in vitro.

PXR LBD = target: T1, PXR LBD (Homo sapiens, UniProt O75469); experiment: One-hybrid PXR LBD reporter gene assay in Caco-2 cells; conditions: 24 h exposure, FIG. 3
T1 construct: validated using a one-hybrid PXR LBD reporter assay; expressed in transfected cells; host or cells: Caco-2
T1 sequence (O75469 146-433 limits assumed): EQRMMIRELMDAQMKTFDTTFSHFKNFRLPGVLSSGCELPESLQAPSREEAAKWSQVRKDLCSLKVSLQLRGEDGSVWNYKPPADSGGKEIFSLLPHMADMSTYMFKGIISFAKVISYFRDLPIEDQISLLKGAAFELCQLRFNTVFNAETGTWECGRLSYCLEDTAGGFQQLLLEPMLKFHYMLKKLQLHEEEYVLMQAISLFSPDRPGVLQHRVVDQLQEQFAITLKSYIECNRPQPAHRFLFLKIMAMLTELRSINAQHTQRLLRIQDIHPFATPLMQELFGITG
Protocol: FIG. 3. One-hybrid PXR reporter gene assay. Performed in Caco-2 cells as a 24 h exposure to FKK5 at two different concentrations.

LXR, Liver X receptor = experiment: Nuclear receptor transactivation assay in Caco-2 cells (LXR); conditions: FIG. 4
Protocol: as §1, §2

PXR = target: T2, PXR (Homo sapiens, UniProt O75469); experiment: PXR activation (transactivation) luciferase assay in LS180 cells; set-up: co-transfecting full-length expressing human PXR plasmid (91) and p3A4 luciferase reporter (92) in LS180 or Caco-2 cells; expressed in transfected cells; host or cells: LS180
T2 sequence (O75469 1-434): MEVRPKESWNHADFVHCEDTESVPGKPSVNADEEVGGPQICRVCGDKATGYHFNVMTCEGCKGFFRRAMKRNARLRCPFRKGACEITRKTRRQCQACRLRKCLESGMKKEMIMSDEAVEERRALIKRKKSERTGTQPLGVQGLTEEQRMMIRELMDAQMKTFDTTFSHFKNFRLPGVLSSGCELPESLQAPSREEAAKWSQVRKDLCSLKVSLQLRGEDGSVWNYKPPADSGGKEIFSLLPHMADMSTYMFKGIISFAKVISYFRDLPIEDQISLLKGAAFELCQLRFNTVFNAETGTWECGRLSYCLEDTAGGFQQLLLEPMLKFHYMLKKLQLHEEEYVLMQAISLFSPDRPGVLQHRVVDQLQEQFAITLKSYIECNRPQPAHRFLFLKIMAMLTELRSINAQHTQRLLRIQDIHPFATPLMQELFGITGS
Protocol: FIG. 6A-6E. Activation and inhibition studies with different FKK compounds. (A) PXR activation, LS180 cells (upper), and PXR inhibition, LS180 cells, co-incubation with RIF (lower). (B) AhR activation, AZ-AHR cells (upper), and AhR inhibition, AZ-AHR cells, co-incubation with TCDD (lower). (C) GR activation, AZ-GR cells (upper), and VDR activation, IZ-VDRE cells (lower). (D) TR activation, PZ-GR cells (upper), and AR activation, AIZ-AR cells (lower). (E) Displacement of radiolabeled 9-cis-retinoic acid (RA) by FKK compounds.
Two molecules that were readily available (Ryan Scientific: FKK999 & BAS451) were purchased and tested in vitro for PXR activation using a HepG2 reporter assay. […] […]. […] In general, reporter cell lines are efficient ways to screen for PXR ligands (72). In the LS180 intestinal cell line, the PXR activation assay involves a transient transfection system using a specific PXR plasmid and reporter plasmid (CVmax % 11.2+2; CVmid % 10.8+0.1.4; Signal Window 6.2+1.1; Z′ factor 0.51+0.005).
All the synthesized compounds and intermediates were tested for their potential to activate PXR and/or AhR via luciferase assays. The PXR activation assays were performed by co-transfecting full-length expressing human PXR plasmid (91) and p3A4 luciferase reporter (92) in LS180 or Caco-2 cells. AhR activation conducted using stably co-transfected HepG2 reporter cells as previously described (93). […] With the exception of FKK6, there was no significant inhibition of TCDD-induced AhR activation. […] Independent verification of AhR activity of randomly selected compounds—FKK 5, 6 and 9—was performed in a separate laboratory (GHP). Nuclear receptor selectivity was assessed for FKK compounds for GR, ADR, TR and AR using cell-based luciferase assays previously described (93-102). There was no observed biologically significant (>2-fold) induction of nuclear receptor activity (FIG. 6C). RXR ligand displacement is only significant for FKK1 and FKK8 (FIG. 6D).

- activation of PXR (PXR LBD): ~5 fold
- EC50 (PXR): 1.68 µM
- Emax (PXR; read-out: Emax/Emax[rifampicin, positive control]): 128%
SMILES: O=C(c1ccncc1)c1cc2ccccc2n1S(=O)(=O)c1ccccc1 [FKK5]
- CAR activation [1]: does not activate
- CAR function with increasing concentrations [1]: CAR function is inhibited
- TNF-induced IL-8 expression (IL-8): significant attenuation; also recorded: reduces pro-inflammatory cytokine IL-8 expression
- LXR activation (LXR, Liver X receptor): does not activate
